Laboratory results: the CheMixHub viscosity set
Values joined by “and” are separate entries in the source; they are usually repeats but may differ in a detail not shown here. Equal entries are not always repeated.

Legend:
[1] = xn = mol fraction of the nth substance listed

CC(=O)[O-].CC[NH2+]CC
101 kPa
Settings	viscosity
303.15 K	13.64 mPa·s and 13.64 mPa·s
308.15 K	11.83 mPa·s and 11.83 mPa·s
313.15 K	10.02 mPa·s

CCC(=O)c1ccccc1
viscosity
Settings	303.15 K	313.15 K	318.15 K
100 kPa	1.51 mPa·s	–	–
101 kPa	1.51 mPa·s and 1.515 mPa·s and 1.622 mPa·s	1.423 mPa·s and 1.449 mPa·s	1.377 mPa·s

CN1CCNCC1
101 kPa
Settings	viscosity [mPa·s]
298.15 K	1.87
313.15 K	1.302

CCCCCCCCCc1ccccc1
viscosity [mPa·s]
Settings	293.15 K	303.15 K	313.15 K	323.15 K
100 kPa	–	–	2.094	–
102 kPa	3.14	2.51	2.05	1.72

C=CCN=C=S
viscosity [mPa·s]
Settings	298.15 K	303.15 K	313.15 K	323.15 K
100 kPa	–	–	0.592	–
101 kPa	0.662	0.671	–	0.526

CC(=O)Nc1ccc(O)cc1 + O
viscosity, [1], 101 kPa
Settings	x1 = 0.00011	x1 = 0.000241	x1 = 0.000483	x1 = 0.000727	x1 = 0.000975	x1 = 0.00122
298.15 K	0.8928 mPa·s and 0.8928 mPa·s	0.8964 mPa·s and 0.8964 mPa·s	0.9001 mPa·s and 0.9001 mPa·s	0.9061 mPa·s and 0.9061 mPa·s	0.9121 mPa·s and 0.9121 mPa·s	0.9178 mPa·s and 0.9178 mPa·s
308.15 K	0.7208 mPa·s and 0.7208 mPa·s	0.7243 mPa·s and 0.7243 mPa·s	0.7281 mPa·s and 0.7279 mPa·s	0.7329 mPa·s and 0.7329 mPa·s	0.7378 mPa·s and 0.7378 mPa·s	0.7424 mPa·s and 0.7424 mPa·s
318.15 K	0.598 mPa·s and 0.598 mPa·s	0.6004 mPa·s and 0.6004 mPa·s	0.6053 mPa·s and 0.6053 mPa·s	0.6102 mPa·s and 0.6102 mPa·s	0.6151 mPa·s and 0.6151 mPa·s	0.6197 mPa·s and 0.6197 mPa·s

CCOC(=O)CC(C)=O + CCCCCO
viscosity [mPa·s], [1], 100 kPa
Settings	x1 = 0.0902	x1 = 0.1791	x1 = 0.2695	x1 = 0.3621	x1 = 0.4424	x1 = 0.5633	x1 = 0.6447	x1 = 0.7739	x1 = 0.8864
293.15 K	2.988	2.424	2.132	1.935	1.8	1.67	1.635	1.603	1.599
298.15 K	2.691	2.191	1.897	1.705	1.602	1.52	1.491	1.481	1.468

NCc1ccccc1 + CCCC(C)O
viscosity [mPa·s], [1], 101.33 kPa
Settings	x1 = 0.1	x1 = 0.2002	x1 = 0.3001	x1 = 0.4001	x1 = 0.4997	x1 = 0.6	x1 = 0.6989	x1 = 0.8	x1 = 0.8998
298.15 K	3.179	2.906	2.676	2.466	2.274	2.11	1.976	1.854	1.75
303.15 K	2.626	2.395	2.192	2.038	1.893	1.765	1.666	1.587	1.532
308.15 K	2.199	2.034	1.884	1.759	1.642	1.559	1.482	1.436	1.401

S=C=S + CC(C)=O
viscosity [mPa·s], [1]
Settings	293.15 K	298.15 K
101 kPa, x1 = 0.035	0.32	0.3065
101 kPa, x1 = 0.107	0.316	0.3025
101 kPa, x1 = 0.167	0.315	0.3015
101 kPa, x1 = 0.202	0.314	0.301
101 kPa, x1 = 0.304	0.316	0.3015
101 kPa, x1 = 0.408	0.319	–
101 kPa, x1 = 0.498	0.324	0.31
101 kPa, x1 = 0.633	0.3325	0.3185
101 kPa, x1 = 0.762	0.343	–
101 kPa, x1 = 0.89	0.354	0.3365
101.33 kPa, x2 = 0.1384	–	0.3361
101.33 kPa, x2 = 0.2716	–	0.3258
101.33 kPa, x2 = 0.3443	–	0.3242
101.33 kPa, x2 = 0.4624	–	0.3103
101.33 kPa, x2 = 0.5524	–	0.3035
101.33 kPa, x2 = 0.6431	–	0.3003
101.33 kPa, x2 = 0.7358	–	0.2975
101.33 kPa, x2 = 0.8389	–	0.2974
101.33 kPa, x2 = 0.9171	–	0.2993

CCCCCCCCCCCCCCCCCCCc1ccccc1 + CCCCCCCCCCCCCCCCCCC
[1], 313.15 K, 101 kPa
Settings	viscosity [mPa·s]
x2 = 0.1066	7.51
x2 = 0.1924	7.01
x2 = 0.433	5.74
x2 = 0.4887	5.47
x2 = 0.6377	4.83
x2 = 0.7465	4.38
x2 = 0.8251	4.09

OCCO + CCO
viscosity [mPa·s], [1], 101 kPa
Settings	x1 = 0.1	x1 = 0.2	x1 = 0.3	x1 = 0.3778	x1 = 0.4	x1 = 0.5	x1 = 0.6	x1 = 0.7	x1 = 0.8	x1 = 0.9
298.15 K	1.439	1.908	2.546	3.567	3.382	4.487	5.986	7.908	10.41	13.61
308.15 K	1.05	1.524	1.991	2.688	2.581	3.346	4.363	5.645	7.295	9.374
318.15 K	0.9744	1.253	1.604	2.13	2.053	2.598	3.325	4.216	5.306	6.652

NCc1ccccc1 + CCC(C)CO
viscosity [mPa·s], [1], 101.33 kPa
Settings	x1 = 0.1	x1 = 0.2	x1 = 0.3001	x1 = 0.3999	x1 = 0.5	x1 = 0.6	x1 = 0.6998	x1 = 0.7989	x1 = 0.8999
298.15 K	4.232	3.772	3.382	3.039	2.708	2.435	2.181	1.984	1.796
303.15 K	3.472	3.103	2.773	2.478	2.243	2.048	1.849	1.691	1.572
308.15 K	2.453	2.227	2.02	1.837	1.711	1.595	1.5	1.423	1.377

NCc1ccccc1 + CCCCCO
viscosity [mPa·s], [1], 101.33 kPa
Settings	x1 = 0.1	x1 = 0.2004	x1 = 0.2999	x1 = 0.4	x1 = 0.4997	x1 = 0.6	x1 = 0.7003	x1 = 0.8	x1 = 0.8999
298.15 K	3.257	3.009	2.798	2.599	2.419	2.25	2.088	1.943	1.808
303.15 K	2.82	2.607	2.436	2.25	2.124	1.971	1.842	1.72	1.616
308.15 K	2.406	2.283	2.133	1.979	1.841	1.734	1.624	1.526	1.454

C=CCN=C=S + CN(C)c1ccccc1
[1], 303.15 K, 101 kPa
Settings	viscosity [mPa·s]
x1 = 0.2324	1.032
x1 = 0.4846	0.884
x1 = 0.7377	0.761

O=CN1CCOCC1 + Cc1ccccc1
[1], 298.15 K, 101.3 kPa
Settings	viscosity [mPa·s]
x2 = 0.01784	7.177
x2 = 0.06829	6.102
x2 = 0.1881	4.224
x2 = 0.2675	3.336
x2 = 0.3466	2.653
x2 = 0.4247	2.155
x2 = 0.5094	1.701
x2 = 0.5956	1.359
x2 = 0.6849	1.099
x2 = 0.7722	0.879
x2 = 0.8479	0.759
x2 = 0.9178	0.646
